The text below walks through data of patent US9446029B2, “Use of NK-1 receptor antagonists in management of visceral pain” (priority 2010, dated 2016).

The test system of series [1] is dogs. The settings on record: cited from earlier work.
The subject of another series is cats. Kind of series: Sevoflurane MAC during ovarian ligament stimulation in cats (Example 3). In kind it is in vivo, cat. The conditions noted are these: for sevoflurane anesthetic requirement MAC (mean±SD): ovarian ligament stimulation, control MAC 2.96±0.32%. An excerpt: Ten (10) female cats were anesthetized with sevoflurane. Following stabilization, the right ovarian ligament was accessed using a laparoscopic approach to determine the anesthetic minimum alveolar concentration (MAC). The ovarian ligament was stimulated using 500 grams of traction force. The MAC is reported as mean±SD, adjusted for calibration values and to sea-level. The anesthetic requirement MAC during stimulation of the ovary was 2.96±0.32%.

Series [2] deals with dogs. In words: Clinical trial of analgesia and comfort in dogs during and after spay surgery (laparotomy ovariohysterectomy), isoflurane anesthesia (Example 2). Further details: dogs showing overt signs of nausea after surgery: dose or concentration left out as unconfirmed. The conditions noted are these: for Post-Operative Carprofen Rescue Analgesia (4 mg/kg, IV): dogs requiring a rescue dose: recovery period; for pain assessment, Visual Analogue Pain Scale (0-10), compared to control group: three hours following recovery from anesthesia, FIG. 6.

In series [3] the test system is dogs. Kind of series: Sevoflurane MAC reduction by I.V. maropitant during ovarian ligament stimulation in dogs (Example 1). In kind it is in vivo, dog. The settings on record: for MAC Reduction (%, mean ± SD): sevoflurane, ovarian ligament stimulation. As for the experimental part: The NK1 receptor antagonist maropitant, available as […]® from Pfizer, is an antiemetic approved for use in dogs. The ability of maropitant to impact the sevoflurane minimum alveolar concentration (MAC) level needed for surgery was tested in canine subjects. The eight animals were 1 year old, intact female, Walker hound mix. A first group was administered 1 mg/kg maropitant, I.V. over 5 minutes then 30 μg/kg/h. A second group was administered 5 mg/kg maropitant, I.V. over 5 minutes then 150 μg/kg/h. General anesthesia was induced using sevoflurane as described below and otherwise according to standard veterinary procedure. Animals were maintained in dorsal recumbency. MAC reduction effect was tested by stimulation of the ovarian ligament. Ovariectomy was performed on each animal at the end of the study. In each animal, sterile laparoscopy was performed to access the right ovary. Following thirty minutes of sevoflurane at steady state, end-tidal sevoflurane concentration was measured with a calibrated agent analyzer (Biochem). […] Esophageal temperature was 37.5-39° C. Ovarian ligament stimulation was performed using 6.61 Newton's of force with a calibrated grass force displacement transducer. FIG. 1 is a bar graph comparing the MAC reduction using I.V. maropitant during […] anesthesia. The observed MAC reduction is reported at sea level (mean±SD), and compared to published results for other MAC reduction agents in Table 1.

Where [4] appears, read: maropitant 1 mg/kg SQ or morphine 0.5 mg/kg SQ before anesthesia.

Molecules are shown by their SMILES. Where two headings read alike, the source gives them in different places.

As for `CC(=O)c1ccc2c(c1)N(CCCN(C)C)c1ccccc1S2` [Acepromazine], the “MAC Reduction (%, mean ± SD)” value in the series on dogs [1] (acepromazine 0.04 mg/kg, halothane, Heard et al., 1986) is recorded as 40%.

For `Oc1ccc2c(c1)[C@@]13CCCC[C@@]1(O)[C@@H](C2)N(CC1CCC1)CC3` [Butorphanol], the “MAC Reduction (%, mean ± SD)” value with dogs [1] (dog, in vivo) was 8%.

Take `CC(C(=O)O)c1ccc2c(c1)[nH]c1ccc(Cl)cc12` (centres unmarked) [Carprofen]: the “MAC Reduction (%, mean ± SD)” value in the series with dogs [1] (carprofen 4 mg/kg, sevoflurane, Yamashita et al., 2008) is 12%.

As for `Cc1cccc([C@H](C)c2cnc[nH]2)c1C` [Dexmedetomidine], the “MAC Reduction (%, mean ± SD)” value is recorded as 18% in the series with dogs [1] (dexmedetomidine 0.5 μg/kg, 0.5 μg/kg/h, isoflurane, Pascoe et al., 2006) and 59% in the series with dogs [1] (dexmedetomidine 3 μg/kg, 3 μg/kg/h, isoflurane, Pascoe et al., 2006).

As for `CNC1(c2ccccc2Cl)CCCCC1=O` (centres unmarked) [Ketamine], the “MAC Reduction (%, mean ± SD)” value in the series with dogs [1] (dog, in vivo) is recorded as 47%.

In the case of `CCN(CC)CC(=O)Nc1c(C)cccc1C` [Lidocaine], the “MAC Reduction (%, mean ± SD)” value is given as 19% in the series on dogs [1] (lidocaine 2 mg/kg, 50 μg/kg/min, isoflurane, Valverde et al., 2004) and 43% in the series on dogs [1] (lidocaine 2 mg/kg, 200 μg/kg/min, isoflurane, Valverde et al., 2004).

Regarding `COc1ccc(C(C)(C)C)cc1CN[C@H]1C2CCN(CC2)[C@@H]1C(c1ccccc1)c1ccccc1` [Maropitant, (7R,8S)—N-[(5-tert-Butyl-2-methoxyphenyl)methyl]-7-[di(phenyl)methyl]-1-azabicyclo[2.2.2]octan-8-amine], in the series with cats (higher maropitant dose IV), the “decrease of anesthetic requirement MAC” value is 17% and the “sevoflurane anesthetic requirement MAC (mean±SD)” value turned out to be 2.45±0.43%. Besides, in the series with cats (maropitant 1 mg/kg IV, 500 grams traction), the “sevoflurane anesthetic requirement MAC (mean±SD)” value amounted to 2.50±0.33%. Moreover, the “decrease of anesthetic requirement MAC” value in the series with cats (maropitant 1 mg/kg IV, p<0.01) was determined as 15%. Also, in the series on dogs [2] (setting [4]), the “average heart rate throughout surgery” value is 103±20 beats per minute, the “average respiratory rate throughout surgery” value is given as 21±12 breaths per minute, the “dogs that started eating within 3 hours following surgery” value is reported as 65% and the “subjects responding with panting during surgical painful stimulation” value is given as 35%. In addition, the “Post-Operative Carprofen Rescue Analgesia (4 mg/kg, IV): dogs requiring a rescue dose” value with dogs [2] (setting [4]) is listed as 18%. In the series with dogs [2] (maropitant 1 mg/kg SQ or morphine 0.5 mg/kg SQ before anesthesia, FIG. 2), the “isoflurane anesthesia required during ovary ligation and resection (vaporizer setting)” value is given as 1.41±0.25%. Also, the “isoflurane anesthesia required during skin closure” value in the series on dogs [2] (maropitant 1 mg/kg SQ or morphine 0.5 mg/kg SQ before anesthesia, end of surgery, FIG. 4) was 1.26±0.19%. The “Post-Operative Carprofen Rescue Analgesia (4 mg/kg, IV): dogs requiring a rescue dose” value in the series with dogs [2] (maropitant 1 mg/kg SQ or morphine 0.5 mg/kg SQ before anesthesia, listed as maropitant) was 18%. Further, in the series with dogs [2], the “pain assessment, Visual Analogue Pain Scale (0-10), compared to control group” value was “showed fewer overt signs of pain and discomfort”. Further, the “MAC Reduction (%, mean ± SD)” value in the series on dogs [3] (maropitant 1 mg/kg I.V. over 5 minutes then 30 μg/kg/h) was determined as 24%. Moreover, the “MAC Reduction (%, mean ± SD)” value in the series with dogs [3] (maropitant 5 mg/kg I.V. over 5 minutes then 150 μg/kg/h) amounted to 30%. Moreover, in the series with dogs [3] (summary of Example 1 (1 and 5 mg/kg)), the “increase of the pain threshold during anesthesia” value is on record as 24-30%.

As for `Cc1cnc(NC(=O)C2=C(O)c3ccccc3S(=O)(=O)N2C)s1` [Meloxciam], the “MAC Reduction (%, mean ± SD)” value with dogs [1] (meloxicam 0.2 mg/kg, sevoflurane, Yamashita et al., 2008) is given as 23%.

With `CN1CC[C@]23c4c5ccc(O)c4O[C@H]2[C@@H](O)C=C[C@H]3[C@H]1C5` [Morphine, morphine], the “dogs showing overt signs of nausea after surgery” value in the series with dogs [2] (before anesthesia) was 31%. In the series on dogs [2] (setting [4]), the “average heart rate throughout surgery” value was 115±23 beats per minute, the “average respiratory rate throughout surgery” value is given as 27±20 breaths per minute, the “dogs that started eating within 3 hours following surgery” value was found to be 26% and the “dogs whose esophageal pH decreased below 5 during surgery (gastric regurgitation)” value is 29%. For the same compound, in the series on dogs [2] (setting [4]), the “subjects responding with panting during surgical painful stimulation” value was 38% and the “Post-Operative Carprofen Rescue Analgesia (4 mg/kg, IV): dogs requiring a rescue dose” value is reported as 30%. In addition, the “Post-Operative Carprofen Rescue Analgesia (4 mg/kg, IV): dogs requiring a rescue dose” value with dogs [2] (maropitant 1 mg/kg SQ or morphine 0.5 mg/kg SQ before anesthesia, listed as morphine) amounted to 30%. Also, the “pain assessment, Visual Analogue Pain Scale (0-10), compared to control group” value in the series on dogs [2] is recorded as “only through the initial two hours of assessment”. The “MAC Reduction (%, mean ± SD)” value in the series with dogs [1] (dog, in vivo) is on record as 35, 39%.
